Reference: patent US20120003329A1, “Use of A2B Adenosine Receptor Antagonists for Treating Pulmonary Hypertension” (Gilead Sciences, Inc., priority 2010, published 2012)

Key:
[1] = tested on: HPASMs; assay: Expression of collagen, extracellular matrix proteins and enzymes, real-time RT-PCR array; assay type: cell-based, human; details: NECA 10 μM together with Compound A 100 nM, 1.5 hours
Experimental: (§1) Gene expression was determined using real-time RT-PCR with Stratagene PCR equipment (La Jolla, Calif.). Zhong H., et al. “A2B adenosine receptors increase cytokine release by bronchial smooth muscle cells, “American Journal of Respiratory Cell and Molecular Biology, 30(1): 118-125 (2004).
HPASMs were incubated in the presence of NECA (10 μM) or NECA (10 μM) together with Compound A (100 nM) for 1.5 hours. A real-time-RT-PCR array focusing on genes involved in tissue remodeling were conducted on the RNAs isolated from the HPASMs. NECA increased the mRNA expression of ADAMTS1, ADAMTS8, CDH1, MMPI, MMP12, HAS1, ITGA7, COL1A1, COL8A1 and CTGF (FIG. 12A-B).

[2] = tested on: Male C57BL6 mice treated with bleomycin (BLM); assay: Bleomycin-induced pulmonary hypertension associated with chronic lung disease in mice; assay type: in vivo
Experimental: Methods: Male C57BL6 mice were treated with bleomycin (BLM) at 0.035 units per mouse, or vehicle (phosphate buffered saline (PBS)) intra-peritoneally twice weekly for 4 weeks. When pulmonary fibrosis was established, on day 15, mice were provided with special chow containing an A2B receptor antagonist, Compound A (˜10 mg/kg/day dose), for the next 18 days (FIG. 15). In contrast, control groups received normal chow.
On day 33, right ventricle systolic pressure (RVSP), systemic blood pressure, heart rate and lung function measurements were performed. Additionally, the lungs were collected for immunohistochemistry (IHC) for α-smooth muscle actin (αSMA).
Statistical Analysis: All data were analyzed using a 1-way ANOVA with a Newman-Keuls post test. The software used to conduct the statistical analysis was Graph-Pad Prism v5.00 (La Jolla Calif.). In all related figures, significance levels: *P<0.05, **[…]<P<0.01, ***P<0.001 refer to comparisons between PBS and BLM groups; significance levels: #P<0.05, # # 0.001<P<0.01, # # # P<0.001 refer to comparisons between BLM and BLM+Compound A groups. All values in the figures represent mean±SEM (standard error or the mean) for 5-8 mice per group.

[3] = tested on: adenosine deaminase (ADA)-deficient mouse model of adenosine-dependent pulmonary injury; assay: Vascular wall thickening in the lungs of ADA-deficient mice (H&E staining); assay type: in vivo; details: 1 mg/kg intraperitoneal twice daily for 14 days, lungs at postnatal day 38
From the text: The model system being used is the adenosine deaminase (ADA)-deficient mouse model of adenosine-dependent pulmonary injury.
This example follows the protocol described in Sun C X, et al. “Role of A2B adenosine receptor signaling in adenosine-dependent pulmonary inflammation and injury,” J. Clin. Invest., 116(8):2173-2182 (2006), which is hereby incorporated by reference.
All ADA-deficient mice were maintained on ADA enzyme therapy from birth to postnatal day 21 to prevent defects in alveolar development. Banerjee, et al. Am. J. Respir. Cell Mol. Biol. 30-38-50 (2004). ADA enzyme therapy was discontinued at postnatal day 21, and 3 days later the mice were given intraperitoneal injections of 1 mg/kg of Compound A twice daily for 14 days.
Lungs were collected from postnatal day 38 mice and prepared routinely for sectioning and H&E staining Tissues were taken from control (ADA+) mice (FIG. 3A), the ADA-deficient mice (FIG. 3B), and the ADA-deficient mouse treated with Compound A (FIG. 3C). Sections are representative of 6-8 different mice from each treatment group.

[4] = tested on: HPASMs; assay: Effect of NECA-activated HPAECs on proliferation of HPASMs (cell count); assay type: cell-based, human; details: supernatant of HPAECs treated with NECA 10 μM and Compound A 100 nM for 18 hours; HPASMs 18 hours
Experimental: (§2) HPASM were grown in smooth muscle growth medium (SMGM-2). HPAECs were grown in endothelium growth medium (EGM-2). Before treatment, cells were seeded in 24-well plates and allowed to grow to ˜80% confluency. Cells were washed and then incubated in serum free basal medium in the absence or presence of adenosine receptor agonists and antagonists. In the proliferation assays, HPASM were incubated in 50% medium collected from HPAEC cells treated with vehicle or NECA.
Cell supernatants were collected from HPAECs treated with vehicle (control medium), NECA (10 μM, NECA medium) or NECA and Compound A (100 nM) for 18 hours. These cell supernatants (diluted 1:1 in […] basal medium) with or without ambrisentan (30 nM) were used to incubate HPASMs for 18 hours. Cells were counted. NECA-HPAEC medium increased cell number of HPASMs at 18 hours compared to control-HPAEC medium.

[5] = tested on: HPAECs; assay: Endothelin-1 release from HPAECs (ELISA); assay type: cell-based, human; details: NECA 10 μM with Compound A 100 nM, 18 hr
Experimental: as §2
(§3) IL-6 and G-CSF were measured using human 30-plex luminex kit from Invitrogen (Carlsbad, Calif.). IL-8, endothelin-1, thromboxane B2 were measured using ELISA (kits obtained from Invitrogen, AssayDesigns (Ann Arbor, Mich.), and Caymen Biomedicals (Ann, Arbor, Mich.) respectively).
HPAECs were incubated in the absence or presence of NECA at various concentrations (0.1 μM, 1 μM, and 10 μM) and Compound A (100 nM) for 18 hours. The amount of ET-1, provided in pg/mL was measured by the ELISA protocol discussed above.

[6] = tested on: HPASMs; assay: Cytokine release from HPASMs (IL-6, IL-8, G-CSF); assay type: cell-based, human; details: NECA 10 μM with Compound A 100 nM, 18 hr
Experimental: as §2, §3
(§4) HPASMs were incubated in the absence or presence of NECA at various concentrations (0.1 μM, 1 μM, and 10 μM) and Compound A (100 nM) for 18 hours.

[7] = tested on: HPAECs; assay: Release of IL-8 in endothelial cells (ELISA); assay type: cell-based, human; details: NECA 10 μM with Compound A 100 nM, 18 hr
Experimental: as §2, §3
HPAECs were incubated in basal medium in the absence or presence of NECA (N-ethylcarboxamide adenosine) at various concentrations (0.1 μM, 1 μM, and 10 μM) and Compound A (100 nM) for 18 hours. NECA is a known adenosine agonist of A1 and A2 subtypes. The amount of IL-8, provided in pg/mL, was measured by ELISA.

[8] = tested on: HPASMs; assay: Thromboxane B2 release from HPASMs (ELISA); assay type: cell-based, human; details: NECA 10 μM with Compound A 100 nM, 18 hours
Experimental: as §2, §3, §4

[9] = tested on: HPASMs; assay: NECA-induced expression of NOTCH3 in HPASMs (real-time RT-PCR); assay type: cell-based, human; details: NECA 10 μM along with Compound A 100 nM, 1.5 hours
Experimental: as §1
HPASMs were incubated with NECA (10 μM) or NECA (10 μM) along with Compound A (100 nM) for 1.5 hours. The expression of NOTCH3 was measured by quantitive real-time RT-PCR using the methodologies described above.

[10] = tested on: HPASMs; assay: Smooth muscle cell migration, Boyden chamber with conditional media; assay type: cell-based, human; details: conditional medium from HPASMs, NECA 10 μM and Compound A 100 nM, 18 hours; migration 24 hours
Experimental: Conditional media were collected from HPASMs treated with vehicle, NECA (10 μM), NECA (10 μM) and Compound A (100 nM), or NECA (10 μM) and an anti-IL-6 antibody (1 ng/mL, purchased from Invitrogen) for 18 hours were added to the lower wells of Boyden chamber assay systems as chemoattractants. HPASMs were allowed to migrate for 24 hours. […] It was also observed that IL-8 neutralizing antibody had no effect on cell migration. […] The released IL-6 in turn enhances smooth muscle cell migration (see FIG. 10B for illustration).

[11] = mice, Compound A ~10 mg/kg/day in chow day 15 to 33, day 33
[12] = mice, Compound A ~10 mg/kg/day in chow day 15 to 33, α-SMA immunostaining
[13] = mice, Compound A ~10 mg/kg/day in chow, Flexivent

NECA-induced mRNA expression of ADAMTS1, ADAMTS8, CDH1, MMPI, MMP12, HAS1, ITGA7, COL1A1, COL8A1 and CTGF [1]: reduced
SMILES: CCCn1c(=O)c2[nH]c(-c3cnn(Cc4cccc(C(F)(F)F)c4)c3)nc2n(CC)c1=O [Compound A, 3-ethyl-1-propyl-8-(1-(3-(trifluoromethyl)benzyl)-1H-pyrazol-4-yl)-1H-purine-2,6(3H,7H)-dione]
BLM-decreased arterial oxygenation levels ([2]; awake mice, Compound A ~10 mg/kg/day in chow, pulse oximetry): attenuated | BLM-induced increase of interleukin (IL)-6 level ([2]; mice, BALF and plasma, day 33, ELISA, Compound A ~10 mg/kg/day in chow): significantly attenuated | BLM-induced increase in peri-vascular fibrosis (total collagen levels in the lung) ([2]; mice, Compound A ~10 mg/kg/day in chow day 15 to 33, Masson's trichrome): attenuated | BLM-induced increase in RV hypertrophy [2, 11]: attenuated | BLM-induced increase in RVSP [2, 11]: attenuated | BLM-induced increase in extent of vascular muscularization [2, 12]: attenuated | BLM-induced increase in number of muscularized vessels [2, 12]: attenuated | BLM-increased dynamic resistance of the lungs [2, 13]: attenuated | BLM-increased quasi-static elastance [2, 13]: attenuated | BLM-increased tissue damping [2, 13]: attenuated | BLM-induced increase of ET-1 ([2]; mice, plasma (ELISA) and pulmonary vessel wall, Compound A ~10 mg/kg/day in chow): significantly attenuated | vascular wall thickening [3]: drastically reduced | NECA induced proliferation of HPASMs [4]: inhibited | NECA-induced release of ET-1 [5]: markedly reduced | NECA-induced release of G-CSF [6]: markedly reduced | NECA-induced release of IL-6 [6]: markedly reduced | NECA-induced release of IL-8 [6]: markedly reduced | NECA-induced release of IL-8 [7]: markedly reduced | NECA-induced release of thromboxane B2 [8]: markedly reduced | increase of NOTCH3 expression induced by NECA [9]: inhibited | NECA-induced increase in smooth muscle cell migration [10]: inhibited
